Assay results published in paper PMC3510080, “Identification of Compounds with Anti-Proliferative Activity against Trypanosoma brucei brucei Strain 427 by a Whole Cell Viability Based HTS Campaign” (PLoS Neglected Tropical Diseases, 2012).
≈ marks a conversion by molar mass, not a printed value. Where “and” joins values, the source holds several entries; their conditions need not be identical. Identical values can stand only once. Like-named read-outs stand apart in the source and are kept apart here.

What was measured:
[1] = system: T.b. rhodesiense STIB900; assay: T. b. rhodesiense STIB900 assay (resazurin); SI versus L6 cells; assay type: cell-based, Trypanosoma brucei rhodesiense; settings: for IC50: T.b. rhodesiense STIB900, 70 h, read-out: Compound activity T.R (IC50); for Selectivity Index T.R: relative to L6 cells
Protocol: (§1) L6 rat skeletal myoblasts, [29] were purchased from the American Type Culture Collection (ATCC, Rockville, MD, USA; ATCC number CRL 1458). This cell line was used for cytotoxicity testing to calculate an SI against T.b. rhodesiense and screened alongside the T.b. rhodesiense, P. falciparum, T. cruzi and L. donovani assays. L6 were also the host cells for the T. cruzi assay. Assays were performed in 96-well microtiter plates, each well containing 100 µl of RPMI 1640 medium supplemented with 1% L-glutamine (200 mM), 10% FCS, and 4000 L6 cells. Serial drug dilutions of eleven 3-fold dilution steps covering a range from 100 to 0.002 µg/ml were prepared. After 70 hours of incubation the plates were inspected under an inverted microscope to assure growth of the controls and sterile conditions. Ten µl of resazurin solution (resazurin, 12.5 mg in 100 ml double-distilled water) was then added to each well and the plates incubated for another 2 hours. Then the plates were read with a Spectramax Gemini XS microplate fluorometer (Molecular Devices Cooperation, Sunnyvale, CA, USA) using an excitation wavelength of 536 nm and an emission wavelength of 588 nm. Data was analysed using the microplate reader software Softmax Pro (Molecular Devices, USA). Podophyllotoxin was used as a positive control in the assay.
T.b. rhodesiense STIB900 stock was isolated in 1982 from a human patient in Tanzania and after several mouse passages cloned and adapted to axenic culture conditions. Fifty microliters of Minimum Essential Medium (MEM) supplemented with 25 mM HEPES, 1 g/l additional glucose, 1% MEM non-essential amino acids (100×), 0.2 mM 2-mercaptoethanol, 1 mM Na-pyruvate and 15% heat inactivated horse serum was added to each well of a 96-well microtiter plate. Serial drug dilutions of eleven 3-fold dilution steps covering a range from 100 to 0.002 µg/ml were prepared. Four thousand bloodstream form cells of T.b. rhodesiense STIB 900 in 50 µl were added to each well and the plate incubated at 37°C under a 5% CO2 atmosphere for 70 hours. Ten microlitres of resazurin solution (resazurin, 12.5 mg in 100 ml double-distilled water) was then added to each well and incubation continued for a further 2–4 hours. Plates were then read with a Spectramax Gemini XS microplate fluorometer (Molecular Devices, USA) using an excitation wavelength of 536 nm and an emission wavelength of 588 nm. Data was analysed using the microplate reader software Softmax Pro (Molecular Devices, USA). The drug melarsoprol was a positive control against T.b. rhodesiense.

[2] = system: T. cruzi Tulahuen strain C2C4; assay: T. cruzi Tulahuen strain C2C4 β-galactosidase assay; SI versus L6 cells; assay type: cell-based, Trypanosoma cruzi; settings: for IC50: in L6 host cells, 96 h, read-out: Compound activity T.C (IC50); for Selectivity Index T.C: relative to L6 cells
Protocol: as §1
Rat skeletal myoblasts (L6 cells) were seeded in 96-well microtitre plates at 2000 cells/well in 100 µl RPMI 1640 medium with 10% FCS and 2 mM l-glutamine. After 24 hours the medium was removed and replaced by 100 µl per well containing 5000 trypomastigote forms of T. cruzi Tulahuen strain C2C4 containing the β-galactosidase (Lac Z) gene. After 48 hours the medium was removed from the wells and replaced by 100 µl fresh medium with or without a serial drug dilution of eleven 3-fold dilution steps covering a range from 100 to 0.002 µg/ml. After 96 hours of incubation the plates were inspected under an inverted microscope to assure growth of the controls and sterility. Then 50 µl of the substrate, containing chlorophenol red-β-D-galactopyranoside (CPRG) and Nonidet, was added to all wells. A colour reaction developed within 2–6 hours that could be read photometrically at 540 nm. Data were transferred into the graphic programme Softmax Pro (Molecular Devices, USA), which calculated IC50 values. The drug benznidazole was used as a positive standard in this assay.

[3] = system: P. falciparum K1 strain; assay: P. falciparum 3H-hypoxanthine incorporation assay; SI versus L6 cells; assay type: cell-based, Plasmodium falciparum; settings: for IC50: Plasmodium falciparum, K1, L6, read-out: Compound activity P.F (IC50); for Selectivity Index P.F: relative to L6 cells
Protocol: as §1
Compounds dissolved in DMSO at 10 mg/ml were added to parasite cultures incubated in RPMI 1640 medium without hypoxanthine, supplemented with HEPES (5.94 g/l), NaHCO3 (2.1 g/l), neomycin (100 U/ml), Albumax (5 g/l) and washed human A^+ red blood cells at 2.5% haematocrit (0.3% parasitaemia). Serial drug dilutions of eleven 3-fold dilution steps covering a range from 100 to 0.002 µg/ml were prepared. The 96-well plates were incubated in a humidified atmosphere at 37°C; 4% CO2, 3% O2, 93% N2. After 48 hours, 50 µl of ^3H-hypoxanthine ( = 0.5 µCi) was added to each well of the plate. The plates were incubated for a further 24 hours under the same conditions. The plates were then harvested with a Betaplate cell harvester (Wallac, Zurich, Switzerland), and the red blood cells transferred onto a glass fibre filter then washed with distilled water. The dried filters were inserted into a plastic foil with 10 ml of scintillation fluid, and counted in a Betaplate liquid scintillation counter (Wallac, Zurich, Switzerland). IC50 values were calculated from sigmoidal inhibition curves using Microsoft Excel.

[4] = system: T.b. brucei; assay: Determination of the cidal action of compounds (MIC and parasite counts); assay type: cell-based, Trypanosoma brucei brucei; settings: for MIC: Trypanosoma brucei, minimum concentration with plateau of activity (>95%) in Alamar Blue concentration response curve, read-out: minimum inhibitory concentration (MIC); for action cidal or static at the MIC: parasites cleared by 72 hours at MIC; for incubation time at the MIC for complete clearance of T.b. brucei parasites: cell counts at 24, 48 and 72 hours (29 hours from Presto Blue)
From the text: The MIC was extrapolated as the minimum concentration at which there was a plateau of activity in the assay (>95% activity).

[5] = system: T.b. brucei; assay: Time to kill assay (Presto Blue); assay type: cell-based, Trypanosoma brucei brucei; settings: for IC50: Trypanosoma brucei
Protocol: The starting dose was 40 µM, and the IC50 values were determined from a 16 point dose-response curve. The assay conditions were the same as previously described for the Alamar Blue assay, except that 10 µL of a final 10% concentration of Presto Blue in HMI-9 medium was added as the indicator of viable cells, at various time points. At the first time point, following 20 hours of incubation with compounds, Presto Blue was added to the wells and incubation at 37°C continued. Plates were read every hour and returned to continue incubation at 37°C. This was performed to determine at which time point there was a reproducible signal (Z' of >0.5), using puromycin as a […].

[6] = Trypanosoma cruzi, TULAHUEN, L6, 96 h
[7] = 29 hours after addition of compound, 2 experiments, read-out: Activity (IC50 value) 29 hours
[8] = 48 hours after addition of compound, read-out: Activity (IC50 value) 48 hours
[9] = read-out: Activity (IC50 value) 72 hours, 72 hours after addition of compound

Row | SMILES | IC50 [1] | IC50 ([1]; Trypanosoma brucei, L6, 70 h) | Selectivity Index T.R [1] | IC50 [2, 6] | Selectivity Index T.C [2] | IC50 [3] | Selectivity Index P.F [3] | population remaining at the MIC, 24 hours ([4]; 24 hours) | population remaining at the MIC, 48 hours ([4]; 48 hours) | MIC [4] | action cidal or static at the MIC [4] | IC50 [5, 7] | IC50 [5, 8] | IC50 [5, 9] | incubation time at the MIC for complete clearance of T.b. brucei parasites [4] | exposure time at which stable/maximum IC50 value was reached [5] | IC50 [2]
1 | Cc1cc(O)nc(-n2nc(C)cc2NC(=O)C2CCCC2)n1 [Compound 4] | 4.85 ± 2.08 µM | 4.8 µM | 0.19 and 0.186 | 15.4 ± 4.29 µM | 0.0588 | 8.17 ± 4 µM | 0.110 |  |  |  |  |  |  |  |  |  | 
2 | CCS(=O)(=O)N1CCCc2ccc(NS(=O)(=O)c3ccccc3F)cc21 [Compound 5] | 14 µM and 14.4 µM | < 10 µM |  | 14.8 ± 0.151 µM | 1.47 | 12.6 ± 5.87 µM | 1.72 |  |  |  |  |  |  |  |  |  | 
3 | O=C(Nc1ccc(Cl)c(-c2nc3ncccc3o2)c1)c1ccco1 [Compound 7] | 0.586 ± 0.073 µM | 0.59 µM |  | 0.23 ± 0.0496 µM |  | 7.76 ± 3.22 µM |  | 0.41% | 0.06% | 0.99 µM (≈ 0.336 µg/mL) | cidal | 0.178 ± 0.007 µM | 0.142 ± 0.0387 µM | 0.22 ± 0.0176 µM |  |  | 
4 | N=C(N)c1ccc(OCCCCCOc2ccc(C(=N)N)cc2)cc1 [Pentamidine, pentamidine, reference compound] |  |  |  |  |  |  |  |  |  | 0.04 µM (≈ 0.0136 µg/mL) |  | 0.00913 ± 0.00276 µM | 0.00341 ± 0.000661 µM | 0.00466 ± 0.000936 µM | 72 h | 48 h | 
5 | CCOc1ccc(OCc2ccc(C(=O)N3CCCC(C)C3)cc2)cc1 (stereo not shown) [Compound 3] | 0.854 ± 0.332 µM | 0.85 µM | 60 and 58.5 | 19.1 ± 5.32 µM | 2.56 | 14.3 ± 6.64 µM | 3.48 |  |  |  |  |  |  |  |  |  | 
6 | CCC(C)NC(=O)c1nc(-c2ccccc2)cnc1N (stereo not shown) [Compound 6] | 0.967 ± 0.45 µM | 0.97 µM | 18 and 18.4 | 19.1 ± 5.32 µM | 0.933 | 11.3 ± 4.79 µM | 1.58 |  |  | 9.92 µM (≈ 2.68 µg/mL) | cidal | 3.09 ± 1.38 µM | 0.177 ± 0.011 µM | 0.111 ± 0.0502 µM |  | 48 h | 
7 | O=C(NCCc1n[nH]c(-c2ccc(F)cc2)n1)c1cccc(F)c1 [Compound 2] | 6.77 ± 0.545 µM | 6.8 µM |  | 19.3 ± 0.0905 µM | 6.20 | 23.9 ± 8.48 µM | 5.00 |  |  | 19.8 µM (≈ 6.5 µg/mL) | cidal | 4.84 ± 0.449 µM | 3.83 ± 0.873 µM | 0.5 ± 0.0431 µM |  |  | 
8 | COc1ccc(C[C@H](N)C(=O)N[C@H]2[C@@H](O)[C@H](n3cnc4c(N(C)C)ncnc43)O[C@@H]2CO)cc1 [Puromycin, puromycin, reference compound] |  |  |  |  |  |  |  |  |  | 1.15 µM (≈ 0.542 µg/mL) |  | 0.152 ± 0.0654 µM | 0.0581 ± 0.0101 µM | 0.0686 ± 0.000283 µM | 24 h | 48 h | 
9 | CCc1ccccc1N=C(NCCN1CCOCC1)NC(=O)c1ccccc1 [Compound 8] | 0.875 ± 0.065 µM | 0.88 µM | 150 | 82 µM | 1.61 | 5.33 ± 2.04 µM | 24.8 |  |  |  |  |  |  |  |  |  | 82.1 ± 1.69 µM
10 | CC(C)(C)C(=O)NCCc1csc(-c2cccc(F)c2)n1 [Compound 1] | 1.47 ± 0.39 µM | 1.5 µM | 42 and 42.3 | 2.3 µM | 26.8 | 35.4 ± 2.75 µM | 1.76 |  |  | 3.97 µM (≈ 1.22 µg/mL) | cidal | 0.898 ± 0.332 µM | 0.691 ± 0.0664 µM | 1.03 ± 0.0184 µM |  |  | 2.32 ± 0.0601 µM
